{"source": "patent US9333214B2", "about": "(priority 2007, dated 2016)", "key": {"[1]": {"tested_on": "P. aeruginosa", "assay": "Amikacin susceptibility testing (MIC) of P. aeruginosa sputum isolates", "type": "cell-based", "conditions": "for MIC: Pseudomonas aeruginosa", "method": "Quantitative culture of sputum samples and subsequent amikacin susceptibility testing of each morphologically distinct P. aeruginosa were performed. The MIC of amikacin for the isolates with the highest MIC cultured from each subject at screening and Day 14 was documented. The density (CFU per gram of sputum) of P. aeruginosa in sputum was calculated as the log10 value for the sum of all morphotypes."}, "[2]": {"assay": "Preclinical pharmacokinetics after inhalation in rats", "conditions": "equal dose by inhalation"}, "[3]": {"tested_on": "P. aeruginosa strain (mucoid strain 3064)", "assay": "Rat model of chronic pulmonary infection with Pseudomonas (agar beads)", "type": "in vivo, rats"}, "[4]": {"conditions": "rat, in vivo"}}}
{"molecule": "NCC[C@H](O)C(=O)N[C@@H]1C[C@H](N)[C@@H](O[C@H]2O[C@H](CN)[C@@H](O)[C@H](O)[C@H]2O)[C@H](O)[C@H]1O[C@H]1O[C@H](CO)[C@@H](O)[C@H](N)[C@H]1O", "note": "[amikacin]", "values": [{"measurement": "MIC", "setting": "[1]; 0 h, Study 1, baseline (Day 0)", "value": 8, "unit": "µg/mL"}, {"measurement": "MIC", "setting": "[1]; 336 h, Study 1, Day 14", "value": 30.8, "unit": "µg/mL"}, {"measurement": "MIC", "setting": "[1]; Study 2, baseline", "value": 41, "unit": "µg/mL"}, {"measurement": "mean MIC of amikacin for P. aeruginosa isolates", "setting": "[1]; Study 1, baseline (Day 0)", "value": 8.04, "unit": "µg/mL"}]}
{"molecule": "NC[C@H]1O[C@H](O[C@H]2[C@H](O)[C@@H](O[C@H]3O[C@H](CO)[C@@H](O)[C@H](N)[C@H]3O)[C@H](N)C[C@@H]2N)[C@H](N)C[C@@H]1O", "note": "[tobramycin]", "values": [{"measurement": "AUC of drug in the kidneys vs Liposomal Amikacin aerosol", "setting": "[2]", "value": "significantly higher"}, {"measurement": "bacteria in lungs", "setting": "[3]; 60 mg/kg (given twice per day) daily for 28 days", "value": "below the limit of detection"}, {"measurement": "bacterial density (log10CFU/lung) vs saline control", "setting": "[3]; BID for 14 days, 30 mg/kg per dose", "value": "significant reduction"}, {"measurement": "time to undetectable lung levels after cessation of administration", "setting": "[4]", "value": "≤ 6", "unit": "h"}]}
